The test system of data set [1] is sugar cane. The experiment in a line: Phytotoxicity on sugar cane, spray above weed one week before planting (Example 5). As to conditions: in vivo. As for the experimental part:
(§1) The “phytotoxicity” evaluated herein is the damage characteristic determined to be due to a treated compound, and is clearly discriminated from the damage characteristic caused by a harmful animal or plant disease.
(§2) A soil is packed into a plastic pot, and seeds of Amaranthus retroflexus are seeded thereon. Thereafter, the pot is placed in a greenhouse, and the weed is grown.
A 30 cm to 40 cm stem cutting of sugar cane is placed on a wet soil, and germination is stimulated. The stem cutting from which a bud has been grown to about 1 cm is selected, and the length of the stem cutting is adjusted to be 3 cm so that the stem cutting has one node.
(§3) The pot for a test is placed in a greenhouse.

For data set [2], the system named is Amaranthus retroflexus. Description: Herbicidal activity, soil surface spray, insecticide-treated stem cutting (Example 6). Type of data set: in vivo. To be noted: 3 cm stem cutting treated with clothianidin, thiamethoxiam, imidacloprid, dinotefuran, nitenpyram, acetamiprid or thiacloprid, four weeks after treatment.
Experimental: A 30 cm to 40 cm stem cutting of sugar cane is placed on a wet soil, and germination is stimulated. The stem cutting from which a bud has grown to about 1 cm is selected, and the length of the stem cutting is adjusted to be 3 cm so that the stem cutting has one node. Clothianidin, thiamethoxiam, imidacloprid, dinotefuran, nitenpyram, acetamiprid or thiacloprid is adhered to the stem cutting. A soil is packed into a plastic pot, and seeds of Amaranthus retroflexus are seeded thereon. The stem cutting of sugar cane treated with clothianidin, thiamethoxiam, imidacloprid, dinotefuran, nitenpyram, acetamiprid or thiacloprid is planted in the soil packed into the pot at a depth of 2 cm. […] Thereafter, the pot for a test is placed in a greenhouse.
In data set [3] the test system is Amaranthus retroflexus. The experiment in a line: Herbicidal activity, soil surface spray, strobilurin-treated stem cutting (Example 8). It counts as in vivo. To be noted: 3 cm stem cutting treated with kresoxim-methyl, azoxystrobin or another listed strobilurin fungicide, four weeks after treatment.
For data set [4], the system named is sugar cane. The experiment in a line: Phytotoxicity on sugar cane, soil surface spray, strobilurin-treated stem cutting (Example 8). As to conditions: in vivo.
Excerpt: as §1
A 30 cm to 40 cm stem cutting of sugar cane is placed on a wet soil, and germination is stimulated. The stem cutting from which a bud has grown to about 1 cm is selected, and the length of the stem cutting is adjusted to be 3 cm so that the stem cutting has one node. Kresoxim-methyl, azoxystrobin, trifloxystrobin, fluoxastrobin, picoxystrobin, pyraclostrobin, dimoxystrobin, pyribencarb, metominostrobin, orysastrobin, enestrobin, pyraoxystrobin or pyrametostrobin is adhered to the stem cutting. A soil is packed into a plastic pot, and seeds of Amaranthus retroflexus are seeded thereon. The stem cutting of sugar cane treated with kresoxim-methyl, azoxystrobin, trifloxystrobin, fluoxastrobin, picoxystrobin, pyraclostrobin, dimoxystrobin, pyribencarb, metominostrobin, orysastrobin, enestrobin, pyraoxystrobin or pyrametostrobin is planted in the soil packed into the pot at a depth of 2 cm. […] Thereafter, the pot for a test is placed in a greenhouse.

The subject of data set [5] is sugar cane. The experiment in a line: Phytotoxicity on sugar cane, spray above weed before planting, strobilurin-treated stem cutting (Example 9). As to conditions: in vivo. As for the experimental part:
as §1, §2
A 30 cm to 40 cm stem cutting of sugar cane is placed on a wet soil, and germination is stimulated. The stem cutting from which a bud has grown to about 1 cm is selected, and the length of the stem cutting is adjusted to be 3 cm so that the stem cutting has one node. Kresoxim-methyl, azoxystrobin, trifloxystrobin, fluoxastrobin, picoxystrobin, pyraclostrobin, dimoxystrobin, pyribencarb, metominostrobin, orysastrobin, enestrobin, pyraoxystrobin or pyrametostrobin is adhered to the stem cutting.
as §3

For data set [6], the system named is Amaranthus retroflexus. Description: Herbicidal activity, soil surface spray, azole-fungicide-treated stem cutting (Example 10). Type of data set: in vivo. As to conditions: 3 cm stem cutting treated with azaconazole, bitertanol or another listed azole-type fungicide, four weeks after treatment.
Data set [7] has as its system sugar cane. The experiment in a line: Phytotoxicity on sugar cane, soil surface spray, azole-fungicide-treated stem cutting (Example 10). To be noted: in vivo.
Excerpt: as §1
A 30 to 40 cm stem cutting of sugar cane is placed on a wet soil, and germination is stimulated. The stem cutting from which a bud has grown to about 1 cm is selected, and the length of the stem cutting is adjusted to be 3 cm so that the stem cutting has one node. Azaconazole, bitertanol, bromoconazole, cyproconazole, difenoconazole, diniconazole, epoxyconazole, fenbuconazole, fluquinconazole, flusilazole, flutriafol, hexaconazole, imibenconazole, ipconazole, metconazole, myclobutanil, penconazole, propiconazole, prothioconazole, simeconazole, tebuconazole, tetraconazole, triadimenol, triticonazole, fenarimol, nuarimol, pyrifenox, imazalil, oxpoconazole fumarate, pefurazoate, procloraz or triflumizole is adhered to the stem cutting. A soil is packed into a plastic pot, and seeds of Amaranthus retroflexus are seeded thereon. The stem cutting of sugar cane treated with azaconazole, bitertanol, bromoconazole, cyproconazole, difenoconazole, diniconazole, epoxyconazole, fenbuconazole, fluquinconazole, flusilazole, flutriafol, hexaconazole, imibenconazole, ipconazole, metconazole, myclobutanil, penconazole, propiconazole, prothioconazole, simeconazole, tebuconazole, tetraconazole, triadimenol, triticonazole, fenarimol, nuarimol, pyrifenox, imazalil, oxpoconazole fumarate, pefurazoate, procloraz or triflumizole is planted in the soil packed into the pot at a depth of 2 cm. […] Thereafter, the pot for a test is placed in a greenhouse.

Data set [8] relates to Amaranthus retroflexus. Description: Herbicidal activity, soil surface spray, metalaxyl-treated stem cutting (Example 12). It counts as in vivo. To be noted: 3 cm stem cutting treated with metalaxyl or metalaxyl-M, four weeks after treatment. As for the experimental part:
A soil is packed into a plastic pot. Seeds of Amaranthus retroflexus are seeded thereon.

For data set [9], the system named is sugar cane. Description: Phytotoxicity on sugar cane, soil surface spray, metalaxyl-treated stem cutting (Example 12). To be noted: in vivo.
Excerpt: as §1
A 30 cm to 40 cm stem cutting of sugar cane is placed on a wet soil, and germination is stimulated. The stem cutting from which a bud has grown to about 1 cm is selected, and the length of the stem cutting is adjusted to be 3 cm so that the stem cutting has one node. Metalaxyl or metalaxyl-M is adhered to the stem cutting. A soil is packed into a plastic pot. Seeds of Amaranthus retroflexus are seeded thereon. The stem cutting of sugar cane treated with metalaxyl or metalaxyl-M is planted in the soil packed into the pot at a depth of 2 cm. […] Thereafter, the pot for a test is placed in a greenhouse.

In data set [10] the test system is Amaranthus retroflexus. Description: Herbicidal activity, spray above weed before planting, metalaxyl-treated stem cutting (Example 13). Type of data set: in vivo. To be noted: sprayed above weed, 3 cm stem cutting treated with metalaxyl or metalaxyl-M planted one week after treatment, four weeks after treatment.
For data set [11], the system named is sugar cane. Description: Phytotoxicity on sugar cane, spray above weed before planting, metalaxyl-treated stem cutting (Example 13). To be noted: in vivo. The procedure: as §1
A soil is packed into a plastic pot, and seeds of Amaranthus retroflexus are seeded thereon. Thereafter, a pot is placed in a greenhouse, and the weed is grown.
A 30 cm to 40 cm stem cutting of sugar cane is placed on a wet soil, and germination is stimulated. The stem cutting from which a bud has grown to about 1 cm is selected, and the length of the stem cutting is adjusted to be 3 cm so that the stem cutting has one node. Metalaxyl or metalaxyl-M is adhered to the stem cutting.
as §3

SMILES strings stand for the structures.

Turning to `Cc1nn(-c2cc(NS(C)(=O)=O)c(Cl)cc2Cl)c(=O)n1C(F)F` [sulfentrazone], the phytotoxicity result was “significant phytotoxicity on sugar cane is not found” in the data set with sugar cane [1]; “significant phytotoxicity on sugar cane is not observed” with sugar cane [4]; “significant phytotoxicity on sugar cane is not observed” with sugar cane [5]; “significant phytotoxicity on sugar cane is not observed” in the data set on sugar cane [7]; “significant phytotoxicity on sugar cane is not observed” in the data set on sugar cane [9]; “significant phytotoxicity on sugar cane is not observed” in the data set with sugar cane [11]. The “herbicidal activity against Amaranthus retroflexus” value in the data set with Amaranthus retroflexus [2] is recorded as “the controlling effect on a weed can be confirmed”; in the data set with Amaranthus retroflexus [3], “the controlling effect on a weed can be confirmed”; in the data set on Amaranthus retroflexus [6], “the control effect on a weed can be confirmed”; in the data set with Amaranthus retroflexus [8], “the controlling effect on a weed can be confirmed”; in the data set on Amaranthus retroflexus [10], “the controlling effect on a weed can be confirmed”.

The record behind these values is US20140329682A1, “METHOD OF CONTROLLING WEED IN A SUGAR CANE FIELD” (SUMITOMO CHEMICAL COMPANY, LIMITED, priority 2011, published 2014).
